PubChem BioAssay (NCI)
Values after ≈ are worked out from the molar mass of the structure shown. Values joined by “and” are separate entries in the source; they are usually repeats but may differ in a detail not shown here. Equal values may be shown once.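 In this assay, cells in 96-well plates receive the compound at five concentrations for 48 hours. Endpoints are linearly interpolated between the surrounding concentrations. GI50 marks 50% less growth. TGI marks complete inhibition of growth.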

Experiments:
Assay in all cases: NCI-60 cell line screen, 48 h
DLD-1 colon = test system: DLD-1 colon
DMS 114 small cell lung = test system: DMS 114 small cell lung
DMS 273 small cell lung = test system: DMS 273 small cell lung
HOP-18 NSCLC = test system: HOP-18 NSCLC
KM20L2 colon = test system: KM20L2 colon
RXF-631 renal = test system: RXF-631 renal
XF 498 CNS = test system: XF 498 CNS
MDA-MB-435 = test system: MDA-MB-435
MDA-N = test system: MDA-N

Structure (SMILES) | TGI (DLD-1 colon) | TGI (DMS 114 small cell lung) | TGI (DMS 273 small cell lung) | TGI (HOP-18 NSCLC) | TGI (KM20L2 colon) | TGI (XF 498 CNS) | TGI (MDA-MB-435) | GI50 (MDA-MB-435) | also measured
O=S(=O)(O)CS(=O)(=O)OCCCl | > 100 µM | > 100 µM | > 100 µM | > 100 µM | > 100 µM | > 100 µM |  |  | TGI (RXF-631 renal): > 100 µM
Cn1ncc2cc3c(Nc4ccc(Cl)cc4)cccc3nc21 | > 100 µM | 28.9 µM |  |  | 34.8 µM | 20.5 µM |  |  | TGI (RXF-631 renal): 74.7 µM
COC(=O)Nc1nc2ccc(C(=O)c3ccc[nH]3)cc2[nH]1 |  |  |  |  |  |  | 0.359 µM |  | TGI (MDA-N): 0.419 µM
CCOC(=O)Cc1c(Cc2[nH]c(C(=O)OCc3ccccc3)c(CC(=O)OCC)c2CC(=O)OCC)[nH]c(C(=O)OCc2ccccc2)c1CC(=O)OCC |  | > 100 µM |  | > 100 µM | > 100 µM |  |  |  | 
O/N=C1/C(=C/c2ccc(F)cc2)CCCC1C(NO)c1ccc(F)cc1 (configuration not stated) | > 100 µM | > 100 µM | > 100 µM | 87.3 µM | 72.2 µM | > 100 µM |  |  | TGI (RXF-631 renal): > 100 µM
Cc1c(NC(=O)C(=O)N=NC(=O)c2ccncc2)c(O)c2ccccc2c1O | 31.6 µM | 15.3 µM | 23.2 µM | 22.3 µM | 70.3 µM |  |  |  | TGI (RXF-631 renal): > 100 µM
N[C@H]1C2C3CC4C5CC(C42)C1(c1ccccc1)C53 (some centres not stated) | > 100 µM | > 100 µM | > 100 µM | > 100 µM | > 100 µM | > 100 µM |  |  | 
O=[N+]([O-])c1ccc(-c2ccc(/C=N/n3c(-c4ccc(Cl)cc4)n[nH]c3=S)o2)cc1 | > 100 µM | > 100 µM | > 63.3 µM | > 100 µM | > 65.8 µM | 46.6 µM |  |  | TGI (RXF-631 renal): > 55.5 µM
O=c1c(Cl)nnc2sc3ccccc3n12 |  |  |  |  |  |  | > 100 µM | 42 µM | 
COc1cc[nH]c1/C=C1\C(=O)Nc2ccc(F)c(C#C[C@@H](O)[C@@H](N)[C@@H](C)O)c21 |  |  |  |  |  |  | 2.83 µM | 0.561 µM | 
O=C(Nc1ccncc1)C(=O)c1cn(S(=O)(=O)c2ccc(Br)cc2)c2ccccc12 |  |  |  |  |  |  | 3.49 µM | 0.459 µM | 
O=C1C2=C(c3ccccc31)C(c1ccc(Cl)cc1)N1C(=O)CCSC1=N2 (configuration not stated) | > 100 µM | > 100 µM | > 100 µM |  | > 100 µM | > 100 µM |  |  | TGI (RXF-631 renal): > 100 µM
C[C@@H](c1ccc2nccn2c1)n1nnc2ncc(-c3cnn(C)c3)nc21 |  |  |  |  |  |  | > 100 µM | > 100 µM | 
CCOC(=O)CCC(NC(=O)c1ccc(N=Cc2nc3cc(C(F)(F)F)ccc3nc2-c2ccccc2)cc1)C(=O)OCC (configuration not stated) | > 100 µM | > 100 µM | > 100 µM | > 100 µM | > 100 µM | 11.7 µM |  |  | GI50 (DLD-1 colon): > 100 µM; GI50 (KM20L2 colon): > 100 µM
CCOC(=O)/N=c1\ss/c(=N\C(=S)N(C)C)n1-c1ccccc1 | > 100 µM |  | > 100 µM |  | > 100 µM | > 100 µM |  |  | GI50 (DLD-1 colon): > 100 µM; GI50 (DMS 114 small cell lung): > 100 µM; GI50 (DMS 273 small cell lung): 77.1 µM; GI50 (KM20L2 colon): > 100 µM
O=C1C2=C(c3ccccc31)C(c1cccc(Cl)c1)NC(=S)N2 (configuration not stated) | > 100 µM | > 100 µM | > 100 µM |  | > 100 µM | > 100 µM |  |  | 

Structure (SMILES) | TGI (DLD-1 colon) | TGI (DMS 114 small cell lung) | TGI (DMS 273 small cell lung) | TGI (HOP-18 NSCLC) | TGI (KM20L2 colon) | TGI (XF 498 CNS) | TGI (MDA-MB-435) | GI50 (MDA-MB-435) | also measured
COc1cc(CCc2cc(NC(=O)c3ccc(N4C[C@@H](C)N[C@@H](C)C4)cc3)n[nH]2)cc(OC)c1 |  |  |  |  |  |  | > 10 µM and 14.2 µM | 6.15 µM and 3.48 µM | 
C/C(=N\NC(=S)Nc1ccc(C(=O)O)cc1)c1ccccn1 | > 100 µM | > 100 µM | 51.8 µM | 97.5 µM | 78.9 µM | 63.7 µM |  |  | 
COc1cc(O)c(C(=O)/C=C/c2ccccc2)c(OC)c1 |  |  |  |  |  |  | 25.5 µM |  | TGI (MDA-N): 14.7 µM
CC1(C)CC(=O)C2=C(C1)NC(SSC1=C(C#N)C(c3ccccc3)C3=C(CC(C)(C)CC3=O)N1)=C(C#N)C2c1ccccc1 (configuration not stated) |  |  |  |  |  |  | 49.9 mg/L | 25.7 mg/L | GI50 (MDA-N): 21 mg/L (≈ 33.9 µM); TGI (MDA-N): 40.4 mg/L
O=[N+]([O-])c1ccc(Sc2ncccn2)c([N+](=O)[O-])c1 |  |  |  |  |  |  | 13.3 µM | 3.16 µM | 
O=C1C=C[C@]2(C[C@@H](c3cccc(C(F)(F)F)c3)O[C@@H](c3cccc(C(F)(F)F)c3)O2)O1 |  |  |  |  |  |  | 3.39 µM | 1.6 µM | 
Cc1ccc(S(=O)(=O)NC(CCC(=O)Nc2ccc(Cl)cc2)C(=O)Nc2ccc(Cl)cc2)cc1 (configuration not stated) |  |  |  |  |  |  | 9.74 µM | 0.169 µM | 
O=C1CC(=O)N(C2CCCCC2)C(=O)N1c1ccccc1S(=O)(=O)Oc1ccccc1 |  |  |  |  |  |  | > 100 µM |  | TGI (MDA-N): > 100 µM
Cc1cc(NC(=O)C2c3ccccc3C(=O)N(CC(C)C)C2c2cccs2)no1 (configuration not stated) |  |  |  |  |  |  | > 100 µM | 33.7 µM | 
O=C(c1cccs1)c1c(C(F)(F)F)n([O-])c2ccc(C(F)(F)F)cc2[n+]1=O |  |  |  |  |  |  | 1.19 µM | 0.564 µM | 
OB([O][Hg][c]1ccccc1)[O][Hg][c]1ccccc1 |  |  |  |  |  |  | 1.63 µM | 0.475 µM | 
Cc1cc(Br)cc(C)c1NC(=O)C(=O)CC(=O)c1sc(-n2nc(-c3ccccc3)cc2-c2ccccc2)nc1C | > 100 µM | > 100 µM | > 100 µM | > 100 µM | > 100 µM |  |  |  | TGI (RXF-631 renal): > 100 µM
COc1cc(-c2cc(C(=O)N3CCN(C(=O)c4ccccc4NCc4ccco4)CC3)nc3cc(-c4ccccc4)nn23)cc(OC)c1OC |  |  |  |  |  |  | 1.61 µM | 0.309 µM | 
NNC(=O)/C(=C/c1cccc([N+](=O)[O-])c1)NC(=O)c1ccccc1 | > 100 µM | > 100 µM | > 100 µM | > 100 µM |  | > 100 µM |  |  | TGI (RXF-631 renal): > 100 µM
COc1c(OC(C)=O)ccc(/C=C2\N=C(C)OC2=O)c1[N+](=O)[O-] | > 100 µM |  | > 100 µM | > 100 µM | > 100 µM |  |  |  | TGI (RXF-631 renal): > 100 µM
COc1ccc(-c2cc(-c3ccc(Nc4nc(Nc5ccc(Cl)cc5)nc(Nc5ccc(Cl)cc5)n4)cc3)nc(N)c2C#N)cc1 |  |  |  |  |  |  | 7.53 µM | 2.22 µM | 
